In ChEMBL document CHEMBL6096718, “Discovery of Rezatapopt (PC14586), a First-in-Class, Small-Molecule Reactivator of p53 Y220C Mutant in Development” (ACS Med Chem Lett, 2025):

system: Cellular tumor antigen p53 (Homo sapiens), P04637 [Y220C]; experiment: Binding affinity to recombinant His-tagged p53 Y220C mutant DNA binding domain (94 to 312 residues) (unknown origin) assessed as induction of biotin-labeled consensus DNA binding by measuring […] concentration required to increase DNA binding incubated for 48 mins by TR-FRET assay; conditions: filed as activator

Structure (SMILES) | EC150 [nM]
COc1cc(S(C)(=O)=O)ccc1NCC#Cc1cc2c(N[C@@H]3CCN(C)C[C@@H]3F)cccc2n1CC(F)(F)F | 8
COc1cc(S(C)(=O)=O)ccc1NCC#Cc1cc2c(N[C@H]3CCN(C)C[C@H]3F)cccc2n1CC(F)(F)F | 20
COc1cc(S(C)(=O)=O)ccc1NCC#Cc1cc2c(N[C@@H]3CCN(C)C[C@@H]3F)cccc2n1CC(F)(F)F (racemic) | 9
COc1cc(S(C)(=O)=O)ccc1NCC#Cc1cc2c(N[C@@H]3CCN(C)C[C@H]3F)cccc2n1CC(F)(F)F (racemic) | 20
